# Values quoted from earlier work as cited in EP0860164A1, “Cosmetic and dermatological composition for sun protection containing triazine derivates and butylenglycol diesters” (Beiersdorf Aktiengesellschaft, priority 1997, dated 1998).
# Details: maximum amount of the filter that known solvents (Bekannte Lösungsmittel) can dissolve
smiles,measurement,value
"CCCCC(CC)COC(=O)c1ccc(Nc2nc(Nc3ccc(C(=O)OCC(CC)CCCC)cc3)nc(Nc3ccc(C(=O)OCC(CC)CCCC)cc3)n2)cc1 (stereo not shown) [UVINUL® T 150, 4,4',4''-(1,3,5-Triazin-2,4,6-triyltriimino)-tris-benzoesäure-tris(2-ethylhexylester)]",Löslichkeit in Lipiden,≤ 15 Gew.-%
